Test results taken from US8551999B2, “Heterocyclic compound and pharmaceutical composition thereof” (Otsuka Pharmaceutical Co., Ltd., priority 2007, dated 2013).

Compound	melting point
Br.COc1ccc(CN2CCN(C(=O)c3cc4cc(Oc5ccc(NC(=O)c6ccc(OC(F)(F)F)cc6)cn5)ccc4n3C)CC2)cc1 [Example 17, N-(6-{2-[4-(4-Methoxybenzyl)piperazine-1-carbonyl]-1-methyl-1H-indol-5-yloxy}pyridin-3-yl)-4-trifluoromethoxybenzamide hydrobromide]	226 to 227 °C
COc1ccc(CN2CCN(C(=O)c3cc4cc(Oc5ccc(N(C)C(=O)c6ccc(OC(F)(F)F)cc6)cn5)ccc4n3C)CC2)cc1.O=C(O)/C=C\C(=O)O [Example 18, N-(6-{2-[4-(4-Methoxybenzyl)piperazine-1-carbonyl]-1-methyl-1H-indol-5-yloxy}pyridin-3-yl)-N-methyl-4-trifluoromethoxybenzamide maleate]	147 to 148 °C
Br.COc1ccc(CN2CCN(C(=O)c3cc4cc(Oc5ccc(N(C)C(=O)c6ccc(C(F)(F)F)c(C)c6)cn5)ccc4n3C)CC2)cc1 [Example 20, N-(6-{2-[4-(4-Methoxybenzyl)piperazine-1-carbonyl]-1-methyl-1H-indol-5-yloxy}pyridin-3-yl)-3,N-dimethyl-4-trifluoromethyl-benzamide hydrobromide]	199 to 202 °C
CCCOc1ccc(CN2CCN(C(=O)c3cc4ccc(Oc5ccc(N(C)S(=O)(=O)c6ccc(C)cc6)cn5)cc4n3C)CC2)cc1 [Example 32, 4,N-Dimethyl-N-(6-{1-methyl-2-[4-(4-propoxybenzyl)piperazine-1-carbonyl]-1H-indol-6-yloxy}pyridin-3-yl)benzenesulfonamide]	135.9 to 136.8 °C
CCCOc1ccc(CN2CCN(C(=O)c3cc4ccc(Oc5ccc(N(C)S(=O)(=O)c6ccc(Cl)c(Cl)c6)cn5)cc4n3C)CC2)cc1 [Example 33, 3,4-Dichloro-N-methyl-N-(6-{1-methyl-2-[4-(4-propoxybenzyl)-piperazine-1-carbonyl]-1H-indol-6-yloxy}pyridin-3-yl)-benzenesulfonamide]	231.7 to 235 °C (dec.)
CN(c1ccc(Oc2ccc3cc(C(=O)N4CCN(Cc5ccc(OCC(F)(F)F)cc5)CC4)[nH]c3c2)nc1)S(=O)(=O)c1ccc(C(F)(F)F)cc1 [Example 39, N-Methyl-N-[6-(2-{4-[4-(2,2,2-trifluoroethoxy)benzyl]piperazine-1-carbonyl}-1H-indol-6-yloxy)pyridin-3-yl]-4-trifluoromethyl-benzenesulfonamide]	200.1 to 200.2 °C
CC(C)Oc1ccc(CN2CCN(C(=O)c3cc4ccc(Oc5ncc(N(C)S(=O)(=O)c6ccc(C(F)(F)F)cc6)cn5)cc4n3C)CC2)cc1 [Example 42, N-(2-{2-[4-(4-Isopropoxybenzyl)piperazine-1-carbonyl]-1-methyl-1H-indol-6-yloxy}pyrimidin-5-yl)-N-methyl-4-trifluoromethyl-benzenesulfonamide]	186.6 to 187.3 °C
Br.Cc1cc(Oc2ccc3cc(C(=O)N4CCN(Cc5ccc(OCC(F)(F)F)cc5)CC4)n(C)c3c2)ncc1NC(=O)c1ccc(C(F)(F)F)cc1 [Example 46, N-[4-Methyl-6-(1-methyl-2-{4-[4-(2,2,2-trifluoroethoxy)benzyl]-piperazine-1-carbonyl}-1H-indol-6-yloxy)pyridin-3-yl]-4-tri-fluoromethylbenzamide hydrobromide]	222.4 to 224.6 °C
Br.Cc1cc(Oc2ccc3cc(C(=O)N4CCN(Cc5ccc(OCC(F)(F)F)cc5)CC4)n(C)c3c2)ncc1N(C)C(=O)c1ccc(C(F)(F)F)cc1 [Example 47, N-Methyl-N-[4-methyl-6-(1-methyl-2-{4-[4-(2,2,2-trifluoroethoxy)-benzyl]piperazine-1-carbonyl}-1H-indol-6-yloxy)pyridin-3-yl]-4-trifluoromethylbenzamide hydrobromide]	220 to 222.5 °C
Br.Cn1c(C(=O)N2CCN(Cc3ccc4c(c3)OCO4)CC2)cc2cc(Oc3ccc(NS(=O)(=O)c4ccc(C(F)(F)F)cc4)cn3)ccc21 [Example 65, N-{6-[2-(4-Benzo[1,3]dioxol-5-ylmethylpiperazine-1-carbonyl)-1-methyl-1H-indol-5-yloxy]pyridin-3-yl}-4-trifluoromethylbenzene-sulfonamide hydrobromide]	210 to 212 °C
CN(c1ccc(Oc2ccc3cc(C(=O)N4CCN(Cc5ccc(OCC(F)(F)F)cc5)CC4)n(C)c3c2)nc1)S(=O)(=O)c1ccc(Cl)c(Cl)c1 [Example 68, 3,4-Dichloro-N-methyl-N-[6-(1-methyl-2-{4-[4-(2,2,2-trifluoro-ethoxy)benzyl]piperazine-1-carbonyl}-1H-indol-6-yloxy)pyridin-3-yl]benzenesulfonamide]	165.9 to 167.2 °C
Br.Cn1c(C(=O)N2CCN(Cc3ccc(OCC(F)(F)F)cc3)CC2)cc2ccc(Oc3ccc(NS(C)(=O)=O)cn3)cc21 [Example 76, N-[6-(1-Methyl-2-{4-[4-(2,2,2-trifluoroethoxy)benzyl]piperazine-1-carbonyl}-1H-indol-6-yloxy)pyridin-3-yl]methanesulfonamide hydrobromide]	237.8 to 240.1 °C
Br.Cc1cc(Oc2ccc3cc(C(=O)N4CCN(Cc5ccc(OCC(F)(F)F)cc5)CC4)n(C)c3c2)ncc1N(C)S(C)(=O)=O [Example 78, N-Methyl-N-[4-methyl-6-(1-methyl-2-{4-[4-(2,2,2-trifluoroethoxy)-benzyl]piperazine-1-carbonyl}-1H-indol-6-yloxy)pyridin-3-yl]-methanesulfonamide hydrobromide]	235.8 to 237.8 °C
Cn1c(C(=O)N2CCN(Cc3ccc4c(c3)OCO4)CC2)cc2cc(Oc3ccc(NC(=O)c4ccc(-n5cccc5)nc4)cn3)ccc21 [Example 225, N-{6-[2-(4-Benzo[1,3]dioxol-5-ylmethylpiperazine-1-carbonyl)-1-methyl-1H-indol-5-yloxy]pyridin-3-yl}-6-pyrrol-1-ylnicotinamide]	155 to 158 °C
COc1ccc(CN2CCN(C(=O)c3cc4cc(Oc5ccc(NC(=O)c6ccc(-n7cccc7)nc6)cn5)ccc4n3C)CC2)cc1 [Example 226, N-(6-{2-[4-(4-Methoxybenzyl)piperazine-1-carbonyl]-1-methyl-1H-indol-5-yloxy}pyridin-3-yl)-6-pyrrol-1-ylnicotinamide]	194 to 195 °C
COc1ccc(CN2CCN(C(=O)c3cc4cc(Oc5ccc(N(C)C(=O)c6ccc(-n7cccc7)nc6)cn5)ccc4n3C)CC2)cc1.O=C(O)C(=O)O.O=C(O)C(=O)O [Example 227, N-(6-{2-[4-(4-Methoxybenzyl)piperazine-1-carbonyl]-1-methyl-1H-indol-5-yloxy}pyridin-3-yl)-N-methyl-6-pyrrol-1-ylnicotinamide dioxalate]	185 to 187 °C

Results, then the compound that gave them:

melting point	Compound
188 to 191 °C	Br.COc1ccc(CN2CCN(C(=O)c3cc4cc(Oc5ccc(NC(=O)c6ccc(C(F)(F)F)c(C)c6)cn5)ccc4n3C)CC2)cc1 [Example 19, N-(6-{2-[4-(4-Methoxybenzyl)piperazine-1-carbonyl]-1-methyl-1H-indol-5-yloxy}pyridin-3-yl)-3-methyl-4-trifluoromethylbenzamide hydrobromide]
152 to 154 °C	COc1ccc(CN2CCN(C(=O)c3cc4cc(Oc5ccc(CNC(=O)c6ccc(C(F)(F)F)cn6)cn5)ccc4n3C)CC2)cc1.O=C(O)C(=O)O.O=C(O)C(=O)O [Example 21, 5-Trifluoromethylpyridine-2-carboxylic acid (6-{2-[4-(4-methoxy-benzyl)piperazine-1-carbonyl]-1-methyl-1H-indol-5-yloxy}pyridin-3-yl)methylamide dioxalate]
226.1 to 227.3 °C	Br.Cc1ccc(C(=O)N(C)c2ccc(Oc3ccc4cc(C(=O)N5CCN(Cc6ccc(OCC(F)(F)F)cc6)CC5)n(C)c4c3)nc2)cc1 [Example 23, 4,N-Dimethyl-N-[6-(1-methyl-2-{4-[4-(2,2,2-trifluoroethoxy)-benzyl]piperazine-1-carbonyl}-1H-indol-6-yloxy)pyridin-3-yl]-benzamide hydrobromide]
189.8 to 192.8 °C	Br.CCN(C(=O)c1ccc(C(F)(F)F)cc1)c1ccc(Oc2ccc3cc(C(=O)N4CCN(Cc5ccc(OCC(F)(F)F)cc5)CC4)n(C)c3c2)nc1 [Example 26, N-Ethyl-N-[6-(1-methyl-2-{4-[4-(2,2,2-trifluoroethoxy)benzyl]-piperazine-1-carbonyl}-1H-indol-6-yloxy)pyridin-3-yl]-4-tri-fluoromethylbenzamide hydrobromide]
234.6 to 235.2 °C	Br.CN(c1ccc(Oc2ccc3cc(C(=O)N4CCN(Cc5ccc(OCC(F)(F)F)cc5)CC4)n(C)c3c2)nc1)S(=O)(=O)c1ccccc1 [Example 30, N-Methyl-N-[6-(1-methyl-2-{4-[4-(2,2,2-trifluoroethoxy)benzyl]-piperazine-1-carbonyl}-1H-indol-6-yloxy)pyridin-3-yl]benzene-sulfonamide hydrobromide]
154.3 to 155.1 °C	Cc1ccc(S(=O)(=O)N(C)c2cnc(Oc3ccc4cc(C(=O)N5CCN(Cc6ccc(OC(C)C)cc6)CC5)n(C)c4c3)nc2)cc1 [Example 44, N-(2-{2-[4-(4-Isopropoxybenzyl)piperazine-1-carbonyl]-1-methyl-1H-indol-6-yloxy}pyrimidin-5-yl)-4,N-dimethylbenzenesulfonamide]
134.3 to 135.6 °C	CC(C)Oc1ccc(CN2CCN(C(=O)c3cc4ccc(Oc5ncc(N(C)S(C)(=O)=O)cn5)cc4n3C)CC2)cc1 [Example 45, N-(2-{2-[4-(4-Isopropoxybenzyl)piperazine-1-carbonyl]-1-methyl-1H-indol-6-yloxy}pyrimidin-5-yl)-N-methylmethanesulfonamide]
152 to 153 °C	O=C(CN1CCc2cc(Oc3ccc(NS(=O)(=O)c4ccc(Cl)c(Cl)c4)cn3)ccc21)N1CCN(Cc2ccc3c(c2)OCO3)CC1 [Example 64, N-(6-{1-[2-(4-Benzo[1,3]dioxol-5-ylmethylpiperazin-1-yl)-2-oxo-ethyl]-2,3-dihydro-1H-indol-5-yloxy}pyridin-3-yl)-3,4-dichloro-benzenesulfonamide]
198.3 to 200.3 °C	Cc1ccc(S(=O)(=O)Nc2ccc(Oc3ccc4cc(C(=O)N5CCN(Cc6ccc(OCC(F)(F)F)cc6)CC5)n(C)c4c3)nc2)cc1 [Example 71, 4-Methyl-N-[6-(1-methyl-2-{4-[4-(2,2,2-trifluoroethoxy)benzyl]-piperazine-1-carbonyl}-1H-indol-6-yloxy)pyridin-3-yl]benzene-sulfonamide]
